Results reported in patent publication US5252571A, “1,4-benzothiazine-2-acetic acid derivatives” (Sapporo Breweries Limited, priority 1990, dated 1993).
Like-named read-outs stand apart in the source and are kept apart here.

Experiments:
[1] = target: T1, aldose reductase (Sus scrofa, UniProt P80276); experiment: Aldose reductase inhibitory activity (porcine crystalline lens enzyme); assay type: biochemical
T1 construct: porcine crystalline lens stored at -80° C. was homogenized in distilled water; from tissue; host or cells: porcine crystalline lens
Description: Aldose reductase enzyme standard was prepared from porcine crystalline lens by the method of Hayman et al. (cf., S. Hayman et al., Journal of Biological Chemistry, 240, 877-882, 1965). That is, porcine crystalline lens stored at -80° C. was homogenized in distilled water followed by centrifugation at 10,000 XG for 15 minutes. The supernatant was dissolved to make 40% ammonium sulfate solution. The supernatant centrifuged at 10,000 XG for further 10 minutes was dialyzed to 0.05 M sodium chloride solution overnight. The thus obtained dialysate was used as the enzyme standard.
The activity of aldose reductase was determined by the method of Hayman et al. supra. That is, 25 μl of the enzyme solution described above and […] of a drug solution in 1% DMSO having various concentrations were added to 200 μl of 40 mM phosphate buffer (pH 6.2) prepared to contain […] lithium sulfate and 0.1 MM NADPH (reduced nicotinamide adenine dinucleotide phosphate) in final concentrations and Containing 3 mM d1-glyceraldehyde as substrate, respectively. Thereafter, the mixture was reacted at 25° C. for 2 minutes and change in absorbance at 340 nm was determined using COBAS FARA II (Roche Co.).

[2] = target: T2, human placenta aldose reductase (Homo sapiens, UniProt P15121); experiment: Aldose reductase of human origin inhibitory activity; assay type: biochemical; conditions: for IC50: d1-glyceraldehyde 3 mM, pH 6.2, 25° C., read-out: IC50 HPAR (human placenta aldose reductase; head prints HPAP); for Ratio HPALR/HPAR: ratio of IC50 aldehyde reductase to aldose reductase, human placenta
T2 construct: The aldose reductase enzyme standard was prepared from human placenta; from tissue; host or cells: human placenta
Description: (§1) That is, human placenta stored at -80° C. was homogenized in distilled water followed by centrifugation at 10,000 XG for 15 minutes. […] The dialysate was applied to DEAE-cellulose column. The fraction containing aldose reductase activity eluted by salt concentration gradient was dialyzed and used as aldose reductase enzyme standard. Furthermore, after fractionation with ammonium sulfate solution, the dialysate was applied to Red Sepharose CL-6B, the fraction containing aldehyde reductase activity eluted by salt concentration gradient was dialyzed and used as aldehyde reductase enzyme standard.
That is, 25 μl of the enzyme solution described above and 25 μl of a drug solution in 1% DMSO having various concentrations were added to 200 μl of 40 Mm phosphate buffer (pH 6.2) prepared to contain 0.4 M lithium sulfate and 0.1 mM NADPH (reduced nicotinamide adenine dinucleotide phosphate) in final concentrations and containing 3 mM d1-glyceraldehyde as substrate, respectively.

[3] = system: tissue sorbitol in streptozotocin-induced diabetic rats; experiment: Inhibitory activity of accumulation of tissue sorbitol in streptozotocin-induced diabetic rats; assay type: in vivo, Sprague-Dawley rats; conditions: 30 mg/kg oral 4, 8 and 24 hours after streptozotocin, control = 100%, Tukey's test *p < 0.05, **p < 0.01; for Accumulation of Tissue Sorbitol (%), Nerve: sciatic nerve
Description: 4) Inhibitory activity of accumulation of tissue sorbitol in streptozatocini-induced diabetic rats.
Sprague-Dawley rats (male,6 weeks of age, one group composed of 5 to 6 rats), fasted overnight, were made diabetic by single intravenous injection of 60 mg/kg body weight of streptozotocin (SIGMA Co. ) , which had been freshly dissolved in normal saline solution.
The compound was orally administered in the form of 0.5% carboxymethylcellulose suspension in a dose of 30 mg/kg 4, 8 and 24 hours after the injection of streptozotocin. During the test, rats were free access to feed and water. Three hours after the final administration, the sorbitol contens in tissues (red blood cell, sciatic nerve, lens) Were determined by the enzyme method of Bergmeyer et al. [cf., H. Y. Bergmeyer et al., Methods of Enzymatic Analysis, 3, 1323-1330, 1974], using SDH (sorbitol dehydrogenase) and AND (β-nicotinamide adenine dinucleotide). The results are shown by percentage (%) when the value obtained with control group administered with 0.5% carboxymethylcellulose solution as a solvent instead of the compound was made 100%.

[4] = target: T3, human placenta aldehyde reductase (Homo sapiens, UniProt P14550); experiment: Aldehyde reductase of human origin inhibitory activity (specificity); assay type: biochemical; conditions: 15 mM glucuronate, pH 7.0, read-out: 10 μM inhibition % HPALR
T3 construct: the fraction containing aldehyde reductase activity eluted by salt concentration gradient was dialyzed and used as aldehyde reductase enzyme standard; from tissue; host or cells: human placenta
T3 sequence (P14550 1-325): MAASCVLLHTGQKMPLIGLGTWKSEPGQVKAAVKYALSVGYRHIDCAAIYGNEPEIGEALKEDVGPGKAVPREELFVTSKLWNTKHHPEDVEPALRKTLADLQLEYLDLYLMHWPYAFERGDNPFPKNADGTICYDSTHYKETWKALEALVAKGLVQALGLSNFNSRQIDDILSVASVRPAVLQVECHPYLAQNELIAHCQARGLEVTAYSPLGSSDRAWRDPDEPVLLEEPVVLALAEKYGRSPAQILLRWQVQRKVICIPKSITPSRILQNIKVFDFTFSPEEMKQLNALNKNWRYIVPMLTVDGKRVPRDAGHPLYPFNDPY
Description: as §1
That is, the activity was determined in a manner similar to the case of determining aldose reductase activity, using 200 mM phosphate buffer (pH 7.0) prepared to contain 0.1 mM NADPH in a final concentration and 15 mM glucuronate as substrate.

[5] = system: ICR strain mice; experiment: Safety test, single oral administration in mice with 14 days observation; assay type: in vivo; conditions: 300 mg/kg oral, male ICR mice
Description: Next, safety of the compounds of the present invention was verified by the following test.
After normal ICR strain mice (male, 7 weeks age, 5 mice being into one group) was fasted for 18 hours, each compound (300 mg/kg) of Examples 1311, 132, 134, 156, 173, 179, 183 and 188 was orally administered in the form of 0.5% carboxymethylcellulose suspension. In the control group, 0.5% carboxymethylcellulose solution alone was orally administered. […] During the observation, mice were free access to feed and water.

[6] = system: sorbitol in lens withdrawn from rat; experiment: Activity for preventing accumulation of sorbitol in lens withdrawn from rat; assay type: cell-based, SD rat; conditions: 50 mM glucose, 10^-6 M test drug, 4 hours, 1% DMSO = 100%, read-out: Sorbitol Content (%)
Description: 2) Activity for preventing accumulation of sorbitol in lens withdrawn from rat
The lens withdrawn from SD rats of 7 to 8 weeks age was incubated in 2.0 ml of Kreb's solution (pH 7. 4) containing 50 mM glucose and 10^-6 M test drug for 4 hours. The sorbitol content formed in the tissue was assayed by the enzyme method of Bergmeyer et al. [cf., H. Y. Bergmeyer et al., Methods of Enzymatic Analysis, 3, 1323-1330, 19741 using SDH (Sorbitol dehydrogenase) and AND (β-nicotinamide adenine dinucleotide). The sorbitol content was made 100% when 1% DMSO as a solvent was added in place of the drug and the activity of the drug was determined.

[7] = d1-glyceraldehyde 3 mM, pH 6.2, 25° C., 2 minutes

Row | Structure (SMILES) | IC50 [2] | Ratio HPALR/HPAR [2] | inhibition at 10 µM [4] | IC50 [1, 7] | IC50 ([1]; read-out: IC50 (50% inhibitory concentration, aldose reductase), d1-glyceraldehyde 3 mM, pH 6.2, 25° C., 2 minutes) | Accumulation of Tissue Sorbitol (%), Lens [3] | Accumulation of Tissue Sorbitol (%), Red Blood Cell [3] | Accumulation of Tissue Sorbitol (%), Nerve [3] | body weight [5] | mice dead [5] | activity at 1 µM [6]
1 | O=C(O)CC1Sc2ccccc2N(Cc2nc3c(F)c(F)cc(F)c3s2)C1=O (stereo not drawn) [Example 183, 2-[4-(4,5,7-Trifluorobenzothiazol-2-yl)methyl-3,4-dihydro-3-oxo-2H-1,4-benzothiazin-2-yl]acetic acid] | 10 nM | > 1000 | 19.3% |  | 9.5 nM | 39.1% | 25.8% | 3.1% | progressed as in the control group | none | 29%
2 | O=C(O)CC1Sc2ccccc2N(Cc2nc3c(F)c(F)ccc3s2)C1=O (stereo not drawn) [Example 189, 2-[4-(4,5-Difluorobenzothiazol-2-yl)methyl-3,4-dihydro-3-oxo-2H-1,4-benzothiazin-2-yl]acetic acid] | 9.3 nM | > 1075 | 18.5% | 9.9 nM |  | 30.7% | 16.6% | 1.1% |  |  | 37%
3 | O=C(O)CC1Sc2cc(F)ccc2N(Cc2nc3c(F)c(F)cc(F)c3s2)C1=O (stereo not drawn) [Example 188, 2-[4-(4,5,7-Trifluorobenzothiazol-2-yl)methyl-7-fluoro-3,4-dihydro-3-oxo-2H-1,4-benzothiazin-2-yl]acetic acid] | 14 nM | > 714 | 19.1% | 9.7 nM |  | 32.5% | 15.7% | 0.0% | progressed as in the control group | none | 38%

Now from value to compound, other results behind:

Row | IC50 [2] | Ratio HPALR/HPAR [2] | inhibition at 10 µM [4] | IC50 [1, 7] | Structure (SMILES) | IC50 ([1]; read-out: IC50 (50% inhibitory concentration, aldose reductase), d1-glyceraldehyde 3 mM, pH 6.2, 25° C., 2 minutes) | Accumulation of Tissue Sorbitol (%), Lens [3] | Accumulation of Tissue Sorbitol (%), Red Blood Cell [3] | Accumulation of Tissue Sorbitol (%), Nerve [3] | body weight [5] | mice dead [5] | activity at 1 µM [6]
4 | 12 nM | > 833 | 32.9% |  | Cc1ccc2c(c1)N(Cc1nc3c(F)c(F)cc(F)c3s1)C(=O)C(CC(=O)O)S2 (stereo not drawn) [Example 165, 2-[4-(4,5,7-Trifluorobenzothiazol-2-yl)methyl-6-methyl-3,4-dihydro-3-oxo-2H-1,4-benzothiazin-2-yl]acetic acid] |  |  |  |  |  |  | 
5 |  |  |  | 21 nM | CC(C)c1cccc2c1OC(C(C)C)C(=S)N2CC(=O)O (stereo not drawn) [Compound A, 3,4-dihydro-2,8-diisopropyl-3-thioxo-2H-1,4-benzoxazine-4-acetic acid, reference compound] |  | 87.3% | 53.7% | 54.9% |  |  | 56%
6 | 13 nM | > 769 | 28.6% |  | O=C(O)CC1Sc2c(F)cccc2N(Cc2nc3c(Cl)c(Cl)ccc3s2)C1=O (stereo not drawn) [Example 167, 2-[4-(4,5-Dichlorobenzothiazol-2-yl)methyl-8-fluoro-3,4-dihydro-3-oxo-2H-1,4-benzothiazin-2-yl]acetic acid] |  |  |  |  |  |  | 
